Tested on: healthy subjects
Test: Phase 1 study: adverse events (TEAEs, MedDRA coded)
Type: in vivo, human
Conditions: 25 mg oral
Procedure: A Phase 1 randomized, double-blind, placebo-controlled study to evaluate the effect of psilocybin on cognitive and emotional processing as compared to placebo in healthy volunteers was conducted. The study investigated the short-term (Day 7) and long-term (Day 28) effects of moderate (10 mg) and high doses (25 mg) of psilocybin on key domains of cognition, such as episodic memory, attention, working and spatial memory, social cognition and elements of executive function, including cognitive flexibility.
Each subject was assigned 1 treatment bottle containing 5 capsules packaged in a double-blind fashion, depending on the randomized treatment arm, the bottle contained one of the following: • a. Psilocybin 10 mg: 2×5-mg oral psilocybin capsules plus 3×placebo capsules • b. Psilocybin 25 mg: 5×5-mg oral psilocybin capsules • c. Placebo: 5×placebo capsules
Each 5-mg oral psilocybin capsules comprised 5 mg crystalline psilocybin in the form or Polymorph A, 12.5 mg of SMCC 50, 79.5 mg of SMCC 90, 1 mg sodium starch glycolate, 1 mg colloidal silicon dioxide, and 1 mg sodium stearyl fumarate
Adverse events: Throughout the course of the study, all AEs were monitored and recorded. Each AE was classified according to the following criteria: • i. […] Moderate: The AE produces some impairment of functioning, but is not hazardous to the subject's health. • iii. Severe: The AE produces significant impairment of functioning or incapacitation and is a definite hazard to the subject's health.
Visit 3 (V3): Drug Administration (Day 0): The subject was asked to eat a light breakfast at least two hours prior to coming to the clinic for study drug administration. On Day 0 (V3), the subject underwent the SSTS, had vital signs obtained, medications reviewed, AEs recorded and eligibility reviewed prior to being randomized to study drug. The study drug was administered to up to six subjects simultaneously in individual beds separated by a curtain. The subject was invited to put on eyeshades and headphones, lie down and listen to calming music for the rest of the session (six hours). The subject was supported 1:1 with a chaperone and supervised by the study psychiatrist and lead therapist.
During administration of psilocybin, each subject received one-on-one support from a trained assisting therapist and each dosing session was supervised by a study psychiatrist and a lead therapist. The study drug was administered simultaneously to up to six participants as a single 5-capsule oral dose (10 mg psilocybin: 2×5-mg psilocybin capsules plus 3×placebo capsules; 25 mg psilocybin: 5×5-mg psilocybin capsules; placebo: 5×placebo capsules). Twenty-five dosing sessions were completed, with up to six participants dosed simultaneously per session. Each session lasted approximately 6 to 8 hours with subjects encouraged to relax and engage in introspection for the duration. After the acute effects of the study drug had subsided, subjects were discharged.

## CN(C)CCc1c[nH]c2cccc(OP(=O)(O)O)c12 [Psilocybin, psilocybin]
  Affect lability, N (%): 3 (10.0)
  Affect lability, worst severity Mild, Events: 2
  Affect lability, worst severity Mild, N (%): 2 (6.7)
  Affect lability, worst severity Moderate, Events: 1
  Affect lability, worst severity Moderate, N (%): 1 (3.3)
  Affect lability, worst severity Severe, Events: 0
  Affect lability, worst severity Severe, N (%): 0
  Any Selected TEAE, Events: 106
  Any Selected TEAE, N (%): 27 (90.0)
  Any TEAE leading to death, Events: 0
  Any TEAE leading to death, N (%): 0
  Any TEAE leading to study discontinuation, Events: 0
  Any TEAE leading to study discontinuation, N (%): 0
  Any TEAE related to study treatment, Events: 208
  Any TEAE related to study treatment, N (%): 29 (96.7)
  Any TEAE, Events: 217
  Any TEAE, N (%): 29 (96.7)
  Any TEAE, worst severity Mild, Events: 14
  Any TEAE, worst severity Mild, N (%): 3 (10.0)
  Any TEAE, worst severity Moderate, Events: 52
  Any TEAE, worst severity Moderate, N (%): 16 (53.3)
  Any TEAE, worst severity Severe, Events: 29
  Any TEAE, worst severity Severe, N (%): 10 (33.3)
  Any serious TEAE related to study treatment, Events: 0
  Any serious TEAE related to study treatment, N (%): 0
  Any serious TEAE, Events: 0
  Any serious TEAE, N (%): 0
  Any severe TEAE, Events: 29
  Any severe TEAE, N (%): 10 (33.3)
  Change in sustained attention, Events: 0
  Change in sustained attention, N (%): 0
  Depressed mood, Events: 2
  Depressed mood, N (%): 2 (6.7)
  Dissociative identity disorder, Events: 2
  Dissociative identity disorder, N (%): 2 (6.7)
  Emotional disorder, Events: 6
  Emotional disorder, N (%): 5 (16.7)
  Emotional disorder, worst severity Mild, Events: 1
  Emotional disorder, worst severity Mild, N (%): 1 (3.3)
  Emotional disorder, worst severity Moderate, Events: 5
  Emotional disorder, worst severity Moderate, N (%): 4 (13.3)
  Emotional disorder, worst severity Severe, Events: 0
  Emotional disorder, worst severity Severe, N (%): 0
  Euphoric mood, Events: 8
  Euphoric mood, N (%): 7 (23.3)
  Euphoric mood, worst severity Mild, Events: 3
  Euphoric mood, worst severity Mild, N (%): 3 (10.0)
  Euphoric mood, worst severity Moderate, Events: 4
  Euphoric mood, worst severity Moderate, N (%): 4 (13.3)
  Euphoric mood, worst severity Severe, Events: 0
  Euphoric mood, worst severity Severe, N (%): 0
  Fatigue, Events: 8
  Fatigue, N (%): 8 (26.7)
  Fatigue, worst severity Mild, Events: 3
  Fatigue, worst severity Mild, N (%): 3 (10.0)
  Fatigue, worst severity Moderate, Events: 5
  Fatigue, worst severity Moderate, N (%): 5 (16.7)
  Fatigue, worst severity Severe, Events: 0
  Fatigue, worst severity Severe, N (%): 0
  Feeling abnormal, Events: 0
  Feeling abnormal, N (%): 0
  Feeling abnormal, worst severity Mild, Events: 0
  Feeling abnormal, worst severity Mild, N (%): 0
  Feeling abnormal, worst severity Moderate, Events: 0
  Feeling abnormal, worst severity Moderate, N (%): 0
  Feeling abnormal, worst severity Severe, Events: 0
  Feeling abnormal, worst severity Severe, N (%): 0
  Feeling of relaxation, Events: 1
  Feeling of relaxation, N (%): 1 (3.3)
  Gastrointestinal disorders, Events: 5
  Gastrointestinal disorders, N (%): 5 (16.7)
  Gastrointestinal disorders, worst severity Mild, Events: 4
  Gastrointestinal disorders, worst severity Mild, N (%): 4 (13.3)
  Gastrointestinal disorders, worst severity Moderate, Events: 1
  Gastrointestinal disorders, worst severity Moderate, N (%): 1 (3.3)
  Gastrointestinal disorders, worst severity Severe, Events: 0
  Gastrointestinal disorders, worst severity Severe, N (%): 0
  General disorders and administration site conditions, Events: 18
  General disorders and administration site conditions, N (%): 15 (50.0)
  General disorders and administration site conditions, worst severity Mild, Events: 8
  General disorders and administration site conditions, worst severity Mild, N (%): 8 (26.7)
  General disorders and administration site conditions, worst severity Moderate, Events: 7
  General disorders and administration site conditions, worst severity Moderate, N (%): 6 (20.0)
  General disorders and administration site conditions, worst severity Severe, Events: 1
  General disorders and administration site conditions, worst severity Severe, N (%): 1 (3.3)
  Hallucination, Events: 2
  Hallucination, N (%): 2 (6.7)
  Hallucination, auditory, Events: 4
  Hallucination, auditory, N (%): 4 (13.3)
  Hallucination, auditory, worst severity Mild, Events: 1
  Hallucination, auditory, worst severity Mild, N (%): 1 (3.3)
  Hallucination, auditory, worst severity Moderate, Events: 3
  Hallucination, auditory, worst severity Moderate, N (%): 3 (10.0)
  Hallucination, auditory, worst severity Severe, Events: 0
  Hallucination, auditory, worst severity Severe, N (%): 0
  Hallucination, gustatory, Events: 0
  Hallucination, gustatory, N (%): 0
  Hallucination, olfactory, Events: 1
  Hallucination, olfactory, N (%): 1 (3.3)
  Hallucination, tactile, Events: 4
  Hallucination, tactile, N (%): 4 (13.3)
  Hallucination, visual, Events: 22
  Hallucination, visual, N (%): 21 (70.0)
  Hallucination, visual, worst severity Mild, Events: 3
  Hallucination, visual, worst severity Mild, N (%): 3 (10.0)
  Hallucination, visual, worst severity Moderate, Events: 13
  Hallucination, visual, worst severity Moderate, N (%): 13 (43.3)
  Hallucination, visual, worst severity Severe, Events: 5
  Hallucination, visual, worst severity Severe, N (%): 5 (16.7)
  Hallucination, worst severity Mild, Events: 0
  Hallucination, worst severity Mild, N (%): 0
  Hallucination, worst severity Moderate, Events: 2
  Hallucination, worst severity Moderate, N (%): 2 (6.7)
  Hallucination, worst severity Severe, Events: 0
  Hallucination, worst severity Severe, N (%): 0
  Headache, Events: 16
  Headache, N (%): 15 (50.0)
  Headache, worst severity Mild, Events: 10
  Headache, worst severity Mild, N (%): 10 (33.3)
  Headache, worst severity Moderate, Events: 5
  Headache, worst severity Moderate, N (%): 5 (16.7)
  Headache, worst severity Severe, Events: 0
  Headache, worst severity Severe, N (%): 0
  Hypoaesthesia, Events: 4
  Hypoaesthesia, N (%): 3 (10.0)
  Hypoaesthesia, worst severity Mild, Events: 4
  Hypoaesthesia, worst severity Mild, N (%): 3 (10.0)
  Hypoaesthesia, worst severity Moderate, Events: 0
  Hypoaesthesia, worst severity Moderate, N (%): 0
  Hypoaesthesia, worst severity Severe, Events: 0
  Hypoaesthesia, worst severity Severe, N (%): 0

— patent US20230023092A1, “TREATMENT OF DEPRESSION AND OTHER VARIOUS DISORDERS WITH PSILOCYBIN” (COMPASS […], priority 2019, published 2023)
